Reference: ChEMBL document CHEMBL3813656, “Allosteric Glutaminase Inhibitors Based on a 1,4-Di(5-amino-1,3,4-thiadiazol-2-yl)butane Scaffold” (ACS Med Chem Lett, 2016)
pIC50: −log10 of the molar value. Values after ≈ are worked out from the molar mass of the structure shown. Active and inactive are the calls of the source. The rule behind the calls is not given here.

Columns and labels:
[1] = target: T1, Glutaminase kidney isoform, mitochondrial (Homo sapiens, UniProt O94925); assay: Inhibition of human kidney type glutaminase (124 to 669 residues) using L-[3H]-glutamine as substrate after 45 mins by topcount method
T1 sequence (O94925 whole entry): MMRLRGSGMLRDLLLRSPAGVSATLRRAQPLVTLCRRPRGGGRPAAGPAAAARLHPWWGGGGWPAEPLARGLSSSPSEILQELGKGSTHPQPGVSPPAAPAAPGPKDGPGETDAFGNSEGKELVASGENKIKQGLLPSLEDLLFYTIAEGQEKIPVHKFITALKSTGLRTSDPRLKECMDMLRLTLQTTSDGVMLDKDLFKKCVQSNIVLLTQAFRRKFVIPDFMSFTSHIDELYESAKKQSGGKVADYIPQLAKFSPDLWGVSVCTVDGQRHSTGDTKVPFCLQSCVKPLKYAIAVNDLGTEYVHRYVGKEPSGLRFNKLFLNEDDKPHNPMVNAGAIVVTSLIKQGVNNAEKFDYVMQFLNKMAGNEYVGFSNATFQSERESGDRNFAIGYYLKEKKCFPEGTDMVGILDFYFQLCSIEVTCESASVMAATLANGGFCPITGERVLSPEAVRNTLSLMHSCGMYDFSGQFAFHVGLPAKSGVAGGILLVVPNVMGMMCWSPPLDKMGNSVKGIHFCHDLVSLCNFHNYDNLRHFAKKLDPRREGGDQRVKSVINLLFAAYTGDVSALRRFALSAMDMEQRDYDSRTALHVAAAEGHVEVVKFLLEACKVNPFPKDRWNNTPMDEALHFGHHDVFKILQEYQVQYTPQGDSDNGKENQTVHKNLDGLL

[2] = target: T2, Glutaminase kidney isoform, mitochondrial (Homo sapiens) (UniProt O94925)
T2 sequence (whole entry): T1 sequence (O94925 whole entry)
Description: Time-dependent inhibition of human kidney type glutaminase (124 to 669 residues) using L-[3H]-glutamine as substrate by topcount method

[3] = Aqueous solubility of the compound in PBS buffer at pH 7.4 at 37 degC after 24 hrs by LC/MS analysis; format: physicochemical; details: pH 7.4, 24 h

With `O=C(Cc1ccccc1)Nc1nnc(CCCCc2nnc(NC(=O)Cc3cccnc3)s2)s1` the pIC50 [1] was 7.15.

With `CN(C)c1ccc(CC(=O)Nc2nnc(CCCCc3nnc(NC(=O)Cc4ccccc4)s3)s2)cc1` the pIC50 [1] was 5.52.

With `CC(=O)Oc1ccc(CC(=O)Nc2nnc(CCCCc3nnc(NC(=O)Cc4cccnc4)s3)s2)cc1` the pIC50 [1] was 6.92.

In the case of `O=C(Cc1ccccc1)Nc1nnc(CCCCc2nnc(NC(=O)Cc3ccc(C(=O)O)cc3)s2)s1`, the pIC50 [1] was 6.96.

Compound `O=C(Cc1ccc(O)cc1)Nc1nnc(CCCCc2nnc(NC(=O)Cc3ccc(O)cc3)s2)s1` has a pIC50 [1] of 6.92.

Compound `Nc1ccc(CC(=O)Nc2nnc(CCCCc3nnc(NC(=O)Cc4ccccc4)s3)s2)cc1` has a pIC50 [1] of 5.64.

Work on `COC(=O)c1ccc(CC(=O)Nc2nnc(CCCCc3nnc(NC(=O)Cc4ccccc4)s3)s2)cc1` yielded a pIC50 [1] of 4.89.

In the case of `O=C(Cc1ccccc1)Nc1nnc(CCCCc2nnc(NC(=O)Cc3ccc(O)cc3)s2)s1`, the TDI [2] was “inactive”, the solubility [3] was 17 µg/mL (≈ 33.4 µM) and the pIC50 [1] was 7.15.

`O=C(Cc1ccccc1)Nc1nnc(CCCCc2nnc(NC(=O)Cc3ccccn3)s2)s1` showed a pIC50 [1] of 7.15.

`COc1ccc(CC(=O)Nc2nnc(CCCCc3nnc(NC(=O)Cc4ccccc4)s3)s2)cc1` showed a pIC50 [1] of 6.68.

`O=C(Cc1ccccc1)Nc1nnc(CCCCc2nnc(NC(=O)Cc3cccc(O)c3)s2)s1` showed a pIC50 [1] of 6.92.

In the case of `O=C(Cc1ccccc1)Nc1nnc(CCCCc2nnc(NC(=O)Cc3ccc(Oc4ccccc4)cc3)s2)s1`, the pIC50 [1] was 6.42.

In the case of `CC(C)(C)OC(=O)Nc1ccc(CC(=O)Nc2nnc(CCCCc3nnc(NC(=O)Cc4ccccc4)s3)s2)cc1`, the pIC50 [1] was 6.35.

Work on `O=C(Cc1ccc(O)cc1)Nc1nnc(CCCCc2nnc(NC(=O)Cc3cccnc3)s2)s1` yielded a pIC50 [1] of 6.85.

In the case of `CC(=O)Oc1ccc(CC(=O)Nc2nnc(CCCCc3nnc(NC(=O)Cc4ccc(OC(C)=O)cc4)s3)s2)cc1`, the pIC50 [1] was 5.92.

`CC(=O)Oc1ccc(CC(=O)Nc2nnc(CCCCc3nnc(NC(=O)Cc4cccc(OC(F)(F)F)c4)s3)s2)cc1` showed a pIC50 [1] of 5.70.

`O=C(Cc1ccc(O)cc1)Nc1nnc(CCCCc2nnc(NC(=O)Cc3cccc(OC(F)(F)F)c3)s2)s1` gave a pIC50 [1] of 6.29.

With `O=C(Cc1ccccc1)Nc1nnc(CCCCc2nnc(NC(=O)Cc3ccc(Br)cn3)s2)s1` the pIC50 [1] was 6.77.

With `CC(=O)Oc1ccc(CC(=O)Nc2nnc(CCCCc3nnc(NC(=O)Cc4ccccc4)s3)s2)cc1` the pIC50 [1] was 6.27.

For `O=C(Cc1ccccc1)Nc1nnc(CCCCc2nnc(NC(=O)Cc3ccc(OCc4ccccc4)cc3)s2)s1`, the pIC50 [1] was < 4.60.
